Assays:
BY2 suspension cells = experiment: Effects of colchicine on growth and cell separation of BY2 suspension cells; type: cell-based, tobacco
Excerpt: BY2 suspension-cultured cells were obtained from Japan tobacco and maintained in LSBY2 medium in a 7 day cycle. Jimsonweed suspension and Pettite Havana tobacco suspensions were initiated from callus initiated at DAS and Xanthi suspensions were procured as a sample from Professor Jack Widholm from UIUC, IL. JT-NT1 suspension cells, obtained from Washington University that are maintained in NT1B medium in 7 day cycle were used only for the pectin degradation enzyme study to separate the cells into single cells. The cells were cultured in shake flasks at 25-28° C. in dark on orbital shakers at 150 rpm. […] Stock concentrations of both the tubulin polymerization inhibitors used in this investigation were dissolved in DMSO to prepare a 0.5 M stock solution. The concentration tested for the pectinase and pectolyase enzymes were in the range of 0.0005% to 0.005%. The tobacco suspension cell lines NT-1 and BY-2, for example, are suitable for the practice of the present invention. BY-2 cells are commercially available and are available according to Nagata et al, for example (Nagata, T., Nemoto, Y., and Hasezawa, S. [1992], Tobacco BY-2 cell line as the “HeLa” cell in the cell biology of higher plants. Int. Rev. Cytol. 132: 1-30). NT-1 cells were originally developed from Nicotiana tabacum L. cv. bright yellow 2. The NT-1 cell line is widely used and readily available; though, any tobacco suspension cell line is consistent with the practice of the invention. It is worth noting that the origins of the NT-1 cell line are unclear. Moreover, the cell line appears variable and is prone to change in response to culture conditions. NT-1 cells suitable for use in the examples below are available from the American Type Culture Collection under accession number ATCC No. 74840. See also U.S. Pat. No. 6,140,075.
Cell expansion and separation were observed by light microscopy (with Nomarski and dark field optics). Spherical cells and single cells were counted by using a hemacytometer to determine the degree of cell expansion and separation, respectively. Cell numbers in aggregates were determined by treating with 5% (wt/vol) chromium trioxide for 16 hr and counting cells (Henshaw et. al, 1966). Cell viability was determined by staining cells (Yokoyama et. al, 1997) with fluorescein diacetate (FDA) and propidium iodide (PI) using a fluorescent microscope (Zeiss Photomicroscope). In order to determine the presence of the cell wall in this single cell cultures optical brightener was used. Calcafluor obtained from Sigma, which is a specific fluorescent dye for cellulose is used in this study, and the cellulose-Calcafluor complexing was observed by fluorescence microscopy (Zeiss Photomicroscope). […]

Eragrostis curvula = details: seeds treated with 0.05% colchicine, tetraploids; cited from earlier work
JTNT1 single cells = experiment: Cytological characterization of JTNT1 single cells (nucleus, cell wall); type: cell-based, tobacco
Experimental: JTNT1 Tobacco single cell initiation and sample collection. JTNT1 Tobacco single cells were initiated in two different media, NT1B with 3% sucrose (NT1B-Suc) and NT1B with 3% glycerol (NT1B-Gly) in 3.5 day culture cycle. […] The flasks were closed with a foam stopper and cultured on a orbital shaker at 130 rpm in dark at 25-28° C. The cultures were sub cultured every 3.5 days up to a period of 14 days. Four samples (Suc/Gly grown cells and the control cultures in Suc/Gly media with 0.2% DMSO) of the cultures were harvested every 3.5 days by spinning the suspension at 3000 rpm for 5 minutes. The samples were immediately lyophilized to prevent any cell oxidation to minimize any deleterious effect on the samples introduced post harvest. Single cells were stained with Hoechst nuclear stain for an hour and observed under scopes for any nuclear anomaly up to two culture cycles.
Cell viability and Cell wall. Established JTNT1 single cells were used to stain with FUN1 (F-7030, Molecular Probes, Invitrogen Inc) cell stain which is used for viability test in yeast, and this contains two color fluorescent probes. The third one, Calcofluor White M2R which stains cell wall, was used to stain the cells. For JTNT1 single cells, […] of FUN1 stain is added and the culture was incubated at room temperature for 20 mins 1 mL fresh culture media was added to wash the excess stain and centrifuged at 3000 rpm; the supernantant was discarded. The cells were examined and imaged on Zeiss ApoTome microscope.
Nucleus. Single cells were stained with Hoechst nuclear stain for an hour and observed on Zeiss Apo Tome for any nuclear anomaly up to two culture cycles. Crystal violet stain was also used as a live nuclear stain for observing nuclear structure for ploidy characterization

Tobacco BY2 suspension = experiment: BY2 single cell production with diphenylpyrazole; type: cell-based
Experimental: Production of GFP expressing single cells. Single cells were produced by adding 1 uM concentration of the compound DDP (diphenylpyrazole) during the initiation of the 7 d culture cycle in the LSBY2-Gly-B15 medium along with the addition of 0.5 ml Pack Cell Volume (PCV) of GFP expressing suspension aggregates at the stationary phase. Alternately, a 25-ml of suspension aggregates were transferred to a 25-ml of fresh LSBY2-Gly-B15 suspension medium by adding 50 ul of […] diphenylpyrazole stock solution dissolved in DMSO to provide a 1 uM final concentration in the suspension. Thus single cells could be produced in a much shorter cycle of only 3.5 days. The LSBY215 medium always contain 15 mg/l glufosinate ammonium for selection
Initiation of single cells in preparation for plastid transformation. Four milliliters of Tobacco BY2 suspension (at the stationary phase growth maintained on a 7-d cycle) was added to 26 mL of fresh medium that composed of either Medium A [LS salts (PhytoTechnology Laboratories, L689), 120 g/L sucrose, 1 mg/L nicotinic acid, 1 mg/L pyridoxine HCl, 10 mg/L thiamine HCl, and 20 nM diphenylpyrazole (DPP)] or Medium B [LS salts, 120 g/L sucrose, 1 mg/L nicotinic acid, 1 mg/L pyridoxine HCl, 10 mg/L thiamine HCl, 2.5 mg/L benzylaminopurine (BAP) and 20 nM DPP] contained in a 125 mL shake flask with a foam stopper. […]

nuclear organization of single cells (JTNT1 single cells; 1 uM, 3.5 d cultures)	nuclear ploidy (JTNT1 single cells; 14 days of continuous treatments)	Compound	single suspension cells (BY2 suspension cells; 1 mM, 7 days)	amount of cells compared with control cultures (BY2 suspension cells; 1 mM, after 7 days)	suspension cells seen as single intact cells (BY2 suspension cells; 7 days in 1 mM, then sub-cultured to colchicine-free medium) [%]	cell viability (FDA and PI) (BY2 suspension cells; BY2-Variant, 1 mM, 7 d)	polymorphic percentage (Eragrostis curvula) [%]	single cell production (Tobacco BY2 suspension; 20 nM, Medium A and Medium B, 7 days)	cells with single nucleus with one or two nucleoli (Tobacco BY2 suspension; 1 uM, 3.5 days of culture, LSBY2 Glycerol medium) [%]
–	–	COc1cc2c(c(OC)c1OC)-c1ccc(OC)c(=O)cc1[C@@H](NC(C)=O)CC2 [Colchicine]	high degree of single suspension cells	about equal amounts	~90	high viability	1.09	–	–
single nucleus	low or no nuclear ploidy percentage	CCOC(=O)COc1nn(-c2ccccc2)c(-c2ccccc2)c1Cl [DAS-PMTI-1]	–	–	–	–	–	produced single cells	90

— patent US8206983B2, “In vitro methods for the induction and maintenance of plant cell lines as single suspension cells with intact cell walls” (Dow AgroSciences, LLC., priority 2006, dated 2012)
